From PubChem BioAssay AID179 (DTP/NCI, 2004)
pEC50, pIC50: −log10 of the molar value. The source made the active and inactive calls.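 The calls were made as follows: active = compounds giving half or more protection of infected cells from virus-caused growth loss, again on retest; inactive = the rest.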 *1 amine or outer side, *2 acyl side, *3 side chain or, on linkers, in order; H or OH if unused. Where a SMILES comes first, the peptide text is derived from it. Bridges are numbered along the chain shown (N, C = ends). [ ]: non-standard residue; d: D form. The star is where a group is joined. ξ: configuration not given here. Fmoc = O=C(OCC1c2ccccc2-c2ccccc21)*; X2 = O=C(C(CCCCNO[*:3])N[*:1])[*:2]; ξW = NC(Cc1c[nH]c2ccccc12)C(=O)O; ξP = O=C(O)C1CCCN1

Test system: CEM cells HIV-1 protection, formazan growth assay
Assay: NCI AIDS Antiviral Assay
Settings: for pIC50: measured here: growth of uninfected CEM cells
Summary of the method: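 Five concentrations of each compound were applied to infected and uninfected human CEM cells. Protection from HIV-1 was judged from growth measured with a soluble formazan assay.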

Row | SMILES | pEC50 | pIC50 | outcome
1 | CCN(CC)CCCC(C)Nc1cc(C)nc2c1ccc1c2ccc2c(NC(C)CCCN(CC)CC)cc(C)nc21 (configuration not stated) | < 4.18 | 5.40 | –
2 | O=C(NC/C(Cl)=C/Cl)Nc1cccc2c1CCCC2 | < 3.70 | 4.30 | –
3 | Nc1nc(Cl)cc(OCC2(O)CC(COC(=O)c3ccccc3)C2)n1 (configuration not stated) | < 3.70 | 4.22 | –
4 | O=P(OC1=CCCCC1)(c1ccccc1)c1ccccc1 | < 3.70 | 4.09 | –
5 | CC12OC(=O)C(C#N)C1(C)C1C(=O)CCCC12 (configuration not stated) | – | – | inactive
6 | COC(=O)NC(Nc1ccc(C)cc1)(C(F)(F)F)C(F)(F)F | – | – | inactive
7 | CC(C)(C)N=NNc1cn(C2OC(CO)C(O)C2O)c(=O)[nH]c1=O (configuration not stated) | < 3.14 | < 3.14 | –
8 | Fc1cccc(F)c1C1SCc2nc3cc4ccccc4cc3n21 (configuration not stated) | < 3.70 | 4.61 | –
9 | CCOC(=O)C1=C(C)NC(=O)NC1c1ccccc1 (configuration not stated) | < 3.70 | < 3.70 | –
10 | CCN1CCC(O)(c2ccc([N+](=O)[O-])cc2)C(C(=O)c2ccc([N+](=O)[O-])cc2)C1 (configuration not stated) | < 3.70 | 4.48 | –
11 | CC1C(=O)C2CC3(C)CO[C@@]2(C3O)[C@@]2(C)CC[C@@H]12 (some centres not stated) | – | – | inactive
12 | CC(CN(C)C)OC(=O)c1cc2ccccc2n1Cc1ccccc1 (configuration not stated) | < 3.70 | 4.06 | –
13 | CC(=O)C(=Cc1ccc([N+](=O)[O-])cc1)C(C)=O | < 3.81 | 4.56 | –
14 | CCCCCCCCCCCCCCCCCCNc1ccn(C2OC(CO)C(OP(=O)(O)OCC3CCC(n4ccc(N)nc4=O)O3)C2O)c(=O)n1 (configuration not stated) | 5.96 | 4.80 | –
15 | CCOC(=O)C1=C(C)/C(=C/c2[n-]c(C)c(C(=O)OCC)c2C)N=C1C.CCOC(=O)C1=C(C)/C(=C/c2[n-]c(C)c(C(=O)OCC)c2C)N=C1C.[Cu+2] | < 3.70 | < 3.70 | –
16 | O=C1/C(=C/c2cccc([N+](=O)[O-])c2)COc2ccc(Br)cc21 | < 4.98 | < 4.98 | –
17 | CN(C)CCSc1nc(-c2cccs2)c2ccccc2n1 | < 3.94 | 4.58 | –
18 | C[C@]12CCC(=O)C=C1CC[C@@H]1C2CC[C@]2(C)Nc3c(cnn3-c3ccccc3)CC12 (some centres not stated) | – | – | inactive
19 | CC1=Nc2cc(N)nn2C(=O)C1 | < 3.70 | < 3.70 | –
20 | C=C(C(=O)O)C1CCC(CC/C=C(\C)CC/C=C(\C)CCC=C(C)C)CO1 (configuration not stated) | < 3.70 | 5.21 | –
21 | COC(OC)C1OCC(n2cc(F)c(=O)[nH]c2=O)C1O (configuration not stated) | < 3.70 | < 3.70 | –

Row | SMILES | pEC50 | pIC50 | outcome
22 | CC(C)(C)C1=CC(=C(c2ccc(-c3c4nc(c(-c5ccc(C(=C6C=C(C(C)(C)C)C(=O)C(C(C)(C)C)=C6)c6cc(C(C)(C)C)c(O)c(C(C)(C)C)c6)cc5)c5ccc([nH]5)c(-c5ccc(C(=C6C=C(C(C)(C)C)C(=O)C(C(C)(C)C)=C6)c6cc(C(C)(C)C)c(O)c(C(C)(C)C)c6)cc5)c5nc(c(-c6ccc(C(=C7C=C(C(C)(C)C)C(=O)C(C(C)(C)C)=C7)c7cc(C(C)(C)C)c(O)c(C(C)(C)C)c7)cc6)c6ccc3[nH]6)C=C5)C=C4)cc2)c2cc(C(C)(C)C)c(O)c(C(C)(C)C)c2)C=C(C(C)(C)C)C1=O | < 4.00 | < 4.00 | –
23 | CCOC1CC(C)N(C(=O)c2ccccc2)O1 (configuration not stated) | < 3.70 | < 3.70 | –
24 | O=C1OC(c2ccccc2)=N/C1=C\c1ccc(Oc2ccc(Cl)c(Cl)c2)cc1 | < 5.60 | < 5.60 | –
25 | N#CCCC1(CCC#N)CCCCCCC(CCC#N)(CCC#N)C(=O)C1=O | < 3.70 | < 3.70 | –
26 | c1ccc(COc2nc3ccc(C45CC6CC(CC(C6)C4)C5)cc3[nH]2)cc1 | < 3.70 | 5.13 | –
27 | N#Cc1c2c(cn3c1nc1ccccc13)Cc1ccccc1-2 | < 3.70 | < 3.70 | –
28 | CN1C(=O)C2CC(O)C(SC3CC4C(=O)N(C)C(=O)C4CC3O)CC2C1=O (configuration not stated) | < 3.70 | < 3.70 | –
29 | CC(=NCCN(CCN=C(C)c1c(O)cc(C)oc1=O)CCN=C(C)c1c(O)cc(C)oc1=O)c1c(O)cc(C)oc1=O | < 3.70 | < 3.70 | –
30 | Cc1cccc(C)c1NC(=O)C1C(=O)N(c2c(C)cccc2C)C(=O)/C1=N\N (configuration not stated) | – | – | inactive
31 | COC1/C=C/OC2(C)Oc3c(C)c(O)c4c(O)c(c(C=NN5CCCCCCCC5)c(O)c4c3C2=O)NC(=O)/C(C)=C/C=C/C(C)C(O)C(C)C(O)C(C)C(OC(C)=O)C1C (configuration not stated) | – | – | inactive
32 | CSc1nc(=O)cnn1C | < 3.70 | < 3.70 | –
33 | Cn1c2c(O)c(O)ccc2c(=O)c2c(O)cc3c(c21)C=CC(C)(C)O3 | < 3.70 | < 3.70 | –
34 | Cc1cn(C2CCC(COP(=O)(OCOC(=O)C(C)(C)C)OCOC(=O)C(C)(C)C)O2)c(=O)[nH]c1=O (configuration not stated) | – | – | active
35 | CC(=O)N1CCOC12N=NC(C)(C)O2 (configuration not stated) | < 3.70 | < 3.70 | –
36 | COC1/C=C\OC2(C)Oc3c(C)c(O)c4c(O)c(c(/C=N\O)c(O)c4c3C2=O)NC(=O)/C(C)=C\C=C/C(C)C(O)C(C)C(O)C(C)C(OC(C)=O)C1C (configuration not stated) | < 4.11 | 4.13 | –
37 | CC1(C)c2ccccc2N2O[C@@H]3C(=O)N(c4ccccc4)C(=O)[C@@H]3C21c1ccccc1 (some centres not stated) | < 4.44 | < 4.44 | –
38 | O=C1Nc2cc3c(cc2C(=O)N2C/C(=N/O)CC12)OCO3 (configuration not stated) | < 3.49 | 3.72 | –
39 | O=C(CC(CC(=O)Oc1c(Br)cc(Br)cc1C(=O)O)C(=O)Oc1c(Br)cc(Br)cc1C(=O)O)Oc1c(Br)cc(Br)cc1C(=O)O | < 3.61 | 4.07 | –
40 | O=S(=O)(O)c1ccc(O)c2ncc(Cl)cc12 | < 3.70 | < 3.70 | –
41 | C(=N\NC1=NCCCCN1)/c1ccc2ccccc2c1 | < 3.70 | 4.48 | –
42 | Clc1ccc2nsnc2c1 | – | – | inactive

Row | SMILES | pEC50 | pIC50 | outcome
43 | N=c1c2ccccc2nc2oc3ccccc3n12 | < 3.70 | < 3.70 | –
44 | CN(CCSSCCN(C)C(N)=S)C(N)=S | < 3.70 | < 3.70 | –
45 | Cc1cn(C2CC3C(COC(CC[Se]c4ccccc4)N3O)O2)c(=O)[nH]c1=O (configuration not stated) | 4.62 | 3.80 | –
46 | CCOc1ccc(C(CN2CCOCC2)C(C)=O)cc1OC (configuration not stated) | < 3.14 | 5.71 | –
47 | O=C(/C=C/c1ccco1)c1ccc(NCc2nc3ccccc3[nH]2)cc1 | < 4.68 | < 4.68 | –
48 | Cc1cc(C)nc(NS(=O)(=O)c2ccc(NC(=O)c3ccc4nc5ccccc5c(Nc5ccc(S(N)(=O)=O)cc5)c4c3)cc2)n1 | < 3.70 | 4.40 | –
49 | CNC(=O)CN1CC(=O)N(C)C(=O)C1 | < 2.90 | < 2.90 | –
50 | CCOC(=O)C1=NN(c2ccccc2)C2=CC(C)=NN(C)C(=S)N21 | < 3.70 | < 3.70 | –
51 | CCNC1CC(C(C)(C)NCC)CC=C1C (configuration not stated) | < 3.65 | < 3.65 | –
52 | CC1(C)C2CCC1C(=O)C(C=O)C2 (configuration not stated) | < 3.70 | < 3.70 | –
53 | CN(C(=O)c1ccccc1S)c1ccccc1 | < 3.70 | 4.69 | –
54 | CN1C(=O)CC2(C)c3cc(C=O)ccc3N(C)C12 (configuration not stated) | – | – | inactive
55 | Cc1cc(-c2cscn2)c(O)c([N+](=O)[O-])c1 | < 3.70 | 4.45 | –
56 | CC(C)(C)OC(=O)N1CCCC1=O | < 3.70 | < 3.70 | –
57 | O=c1c2cc([N+](=O)[O-])cnc2sn1-c1ccc(Br)cc1 | < 3.70 | 4.20 | –
58 | N=c1ccn2c(n1)OC1C(OC(=O)C34CC5CC(CC(C5)C3)C4)C(COC(=O)C34CC5CC(CC(C5)C3)C4)OC12 (configuration not stated) | – | – | inactive
59 | C=C1CN(C(=O)c2cc3cc(OC)c(OC)c(OC)c3[nH]2)c2cc([N+](=O)[O-])ccc21 | 4.57 | < 3.70 | –
60 | CCOC(=O)c1nc2ccc(C(F)(F)F)cc2[nH]c1=O | < 3.70 | < 3.70 | –
61 | O=C1CC23CCCCCCCCCCC2(C1)CC(=O)C3 (configuration not stated) | – | – | inactive
62 | CN(C)C(=O)C(CC[N+]1(C)CCCC12CCCCC2)(c1ccccc1)c1ccccc1 (configuration not stated) | < 3.70 | 4.13 | –
63 | COP(=O)(CC(=O)CCCCCOC1CCCCO1)OC (configuration not stated) | – | – | inactive

Row | SMILES | pEC50 | pIC50 | outcome
64 | COC(=O)c1cc(C(=CCCN=[N+]=[N-])c2cc(Cl)c(OC)c(C(=O)OC)c2)cc(Cl)c1OC | 4.48 | 4.46 | –
65 | O=C1c2[nH]c3ccc(Br)cc3c2CCN1Cc1ccc(Cl)cc1 | < 3.70 | 4.95 | –
66 | NC(=S)N/N=C1\NC(=O)/C(=C/c2ccc3c(c2)OCO3)S1 | < 3.70 | 3.80 | –
67 | CCOC(=O)C(NC(=O)c1ccc(N=NN(C)C)cc1)C(C)C (configuration not stated) | < 3.39 | 3.51 | –
68 | CC(C)CS(=O)(=O)/C(=C(\c1ccc(Br)cc1)S(=O)(=O)CC(C)C)c1ccc(Br)cc1 | < 5.89 | < 5.89 | –
69 | CCOC(=O)/C(=C/c1ccco1)P(=O)(OCC)OCC | < 3.08 | 3.31 | –
70 | NC(N)=NNC(=O)CCCCCCCC(=O)NN=C(N)N | 3.27 | 3.17 | –
71 | COc1cccc2c1C(=O)C1=C(C2=O)C(O)CC(C)(C)O1 (configuration not stated) | < 3.70 | 4.47 | –
72 | CN(C)CC1CCCC1=O (configuration not stated) | < 3.70 | 4.55 | inactive
73 | N=c1oc2ccc(Cl)cc2cc1C(=O)NCc1ccccc1 | < 3.70 | – | –
74 | C/C(=N\NC(=O)c1ccncc1)c1ccc(F)cc1 | < 3.44 | < 3.44 | –
75 | NC(=O)CNC(=O)C1CCCN1C(=O)C1CCCCNOC(=O)CC[C@@H](NC(=O)OCC2c3ccccc3-c3ccccc32)C(=O)NC(Cc2c[nH]c3ccccc23)C(=O)N1 (some centres not stated) (Fmoc-[dE][ξW][X2][ξP]G-NH2; ester 1-3) | < 4.00 | < 4.00 | –
76 | C[C@H]1COC2=C1C(=O)C(=O)c1c2ccc2c1CCCC2(C)C | < 3.70 | 5.05 | –
77 | COc1cc2c3c(c1)[nH]c(=S)n3C(=O)C(C)S2 (configuration not stated) | < 3.70 | 3.85 | –
78 | Cc1cc2c(c3ncccc13)OCN(Cc1ccc(Cl)c(Cl)c1)C2 | < 4.00 | 5.98 | –
79 | CC(C)=CC1CC(C)C2(CCC3(C)CC4C5/C(=C\CC32)C(=O)OC5CC4(C)O)O1 (configuration not stated) | < 5.70 | 6.40 | –
80 | Clc1ccc(C2=Cc3nc2c(-c2ccccc2)c2ccc([nH]2)c(-c2ccccc2)c2nc(c(-c4ccccc4)c4ccc([nH]4)c3-c3ccccc3)C=C2)cc1 | < 3.70 | < 3.70 | –
81 | Cc1ccc2c(c1)[n+]([O-])c(N)n[n+]2[O-] | < 3.70 | 4.72 | –
82 | Nc1nc(NCC2(CO)CCC2)cc(=O)[nH]1 | < 3.70 | < 3.70 | –
